Data: ChEMBL document CHEMBL3739349, “Cytotoxic Clerodane Diterpenoids from the Leaves of Casearia grewiifolia” (J Nat Prod, 2015)

How the values were obtained:
Lu1 = assay: Cytotoxicity against human Lu1 cells assessed as growth inhibition after 72 hrs by neutral red staining based colorimetric assay; type: functional, cell-based; conditions: Lu1, 72 h
HepG2 = assay: Cytotoxicity against human HepG2 cells assessed as growth inhibition after 72 hrs by neutral red staining based colorimetric assay; type: functional, cell-based; conditions: HepG2, 72 h
[1] = Cytotoxicity against mouse NIH/3T3 cells assessed as growth inhibition after 72 hrs by neutral red staining based colorimetric assay; type: cell-based; conditions: NIH3T3, 72 h
MCF7 = assay: Cytotoxicity against human MCF7 cells assessed as growth inhibition after 72 hrs by neutral red staining based colorimetric assay; type: functional, cell-based; conditions: MCF7, 72 h
KB = assay: Cytotoxicity against human KB cells assessed as growth inhibition after 72 hrs by neutral red staining based colorimetric assay; type: functional, cell-based
[2] = Cytotoxicity against mouse NIH/3T3 cells assessed as growth inhibition at 100 uM after 72 hrs by neutral red staining based colorimetric assay; type: cell-based; conditions: nih3t3, 72 h

| Compound | IC50 (Lu1) | IC50 (HepG2) | IC50 [1] | IC50 (MCF7) | IC50 (KB) | Activity [2] |
| --- | --- | --- | --- | --- | --- | --- |
| Cc1c2ccncc2c(C)c2c1[nH]c1ccccc12 [ELLIPTECINE] | 1200 nM | 1500 nM | 1300 nM | 900 nM | 1400 nM | – |
| C=CC(=C)CC[C@]1(C)[C@H](C)[C@@H](OC(=O)/C=C/c2ccc(O)cc2)[C@H](O)[C@@]23C(=C[C@H](OC(=O)CCC)C[C@@H]12)[C@H](OC)O[C@H]3OC | > 10000 nM | 7000 nM | > 10000 nM | > 10000 nM | 6200 nM | Non-toxic |
| C=CC(=C)CC[C@]1(C)[C@H](C)[C@@H](OC(=O)/C=C/c2ccc(O)cc2)[C@H](O)[C@@]23C(=C[C@H](OC(=O)CC(C)C)C[C@@H]12)[C@H](OC)O[C@H]3OC(C)=O | > 10000 nM | > 10000 nM | > 10000 nM | > 10000 nM | > 10000 nM | – |
| C=CC(=C)CC[C@]1(C)[C@H](C)C[C@H](O)[C@@]23C(=C[C@H](OC(=O)CCC)C[C@@H]12)[C@@H](OC(C)=O)O[C@H]3OC(C)=O [CASEANIGRESCEN D] | 900 nM | 300 nM | 300 nM | 800 nM | 500 nM | – |
